This assay deals with Human MGAT-2 (Homo sapiens (Human), UniProt Q3SYC2). The assay is described as follows: MGAT LCMS Assay. In kind it is biochemical. To be noted: recombinant MGAT-2 membranes expressed in Sf9 cells; 100 μM 2-oleoylglycerol, 15 μM oleoyl-Coenzyme A; LC/MS of diolein; read-out: h-MGAT LCMS IC50. The procedure: Assay plates were run through a fully automated robotics system and shaken for 5 seconds every minute for a total 10 minutes. The reactions were then quenched with 120 μL of ice cold methanol containing 1 μg/mL 1,2-distearoyl-rac-glycerol as the internal standard. Plates were shaken for 2 minutes and spun down to remove protein precipitation. After the spin, samples were transferred to LC/MS compatible PCR plates. For LC/MS analysis, a ThermoFisher Surveyor pump, utilizing a Waters Symmetry C8, 50×2.1 mm column, was used for the chromatography of enzyme products. The buffer system consists of 0.1% formic acid in water with a mobile phase consisting 0.1% formic acid in methanol. The shallow gradient is 90-100% mobile phase in 0.2 min with a total run time of 2.3 min. The first 0.5 minutes of each injection was diverted to waste to eliminate the presence of Phosphate buffer in the enzymatic reaction. The column was run at 0.6 mL/min and a temperature of 65° C. Mass spectrometry analysis of the samples was performed on a ThermoFisher Quantum Triple quad utilizing APCI (+) as the mode of ionization. […] The ratio of Diolein to internal standard (Peak Area Ratio) is utilized to calculate IC50 values.
Human MGAT-2, sequence (Q3SYC2 whole entry): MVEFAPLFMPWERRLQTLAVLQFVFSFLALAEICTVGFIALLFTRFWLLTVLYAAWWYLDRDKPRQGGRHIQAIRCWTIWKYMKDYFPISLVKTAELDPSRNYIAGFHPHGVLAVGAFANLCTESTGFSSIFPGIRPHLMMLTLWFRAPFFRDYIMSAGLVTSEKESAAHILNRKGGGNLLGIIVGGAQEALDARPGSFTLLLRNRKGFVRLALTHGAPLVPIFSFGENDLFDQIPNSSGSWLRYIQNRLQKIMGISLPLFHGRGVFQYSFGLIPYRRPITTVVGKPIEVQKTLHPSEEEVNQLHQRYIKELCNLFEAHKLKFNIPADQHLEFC
For orientation: IC50 means the concentration at which inhibition is half-maximal. As for `CCS(=O)(=O)NC(=O)C1=C(c2ccc(C)cc2)C[C@](c2ccc(OCCCCCC(F)(F)F)cc2)(C(F)(F)F)NC1=O` [Example 1, (S)—N-(Ethylsulfonyl)-2-oxo-4-(p-tolyl)-6-(4-((6,6,6-trifluorohexyl)oxy)phenyl)-6-(trifluoromethyl)-1,2,5,6-tetrahydropyridine-3-carboxamide], the 50% inhibitory concentration (IC50) is 17 nM.

Regarding `CCCCCCC#C[C@]1(C(F)(F)F)CC(c2ccc(C)cc2)=C(C(=O)NS(=O)(=O)C2CC2)C(=O)N1` [Example 2], the IC50 came out at 20 nM.

Turning to `Cc1ccc(C2=C(C(=O)NS(=O)(=O)C3CC3)C(=O)N[C@@](c3ncc(CCCCCCC(F)(F)F)s3)(C(F)(F)F)C2)cc1` [Example 3], the IC50 amounted to 9 nM.

In the case of `CN(C)c1ccc(C2=C(C(=O)NS(=O)(=O)C3CC3)C(=O)N[C@@](c3ccc(OCCCCCC(F)(F)F)cc3)(C(F)(F)F)C2)cc1` [Example 4], the IC50 worked out at 17 nM.

For the compound `CS(=O)(=O)NC(=O)C1=C(c2ccc(OC(F)F)cc2)C[C@](c2ccc(OCCCCCC(F)(F)F)cc2)(C(F)(F)F)NC1=O` [Example 5], the IC50 was 38 nM.

For `Cc1ccc(C2=C(C(=O)NS(=O)(=O)C3CC3)C(=O)N[C@@](c3ccc(OCCCCCC(F)(F)F)cc3F)(C(F)(F)F)C2)cc1` [Example 6], the IC50 was 4 nM.

As for `CCc1ccc(C2=C(C(=O)NS(C)(=O)=O)C(=O)N[C@@](c3ccc(OCCCC(F)(F)F)cc3)(C(F)(F)F)C2)s1` [Example 7], the IC50 was determined as 12 nM.

Turning to `CCS(=O)(=O)NC(=O)C1=C(c2ccc(OC(F)F)cc2)C[C@](c2ccc(OCCCCCC(F)(F)F)cc2)(C(F)(F)F)NC1=O` [Example 8], the IC50 was 33 nM.

For the compound `Cc1ccc(C2=C(C(=O)NS(C)(=O)=O)C(=O)N[C@@](c3ccc(OCCCCCC(F)(F)F)cc3)(C(F)(F)F)C2)cc1` [Example 9], the IC50 worked out at 16 nM.

Turning to `CCc1ccc(C2=C(C(=O)NS(=O)(=O)C3CC3)C(=O)N[C@@](c3ccc(OCCCCCC(F)(F)F)cc3)(C(F)(F)F)C2)s1` [Example 10], the IC50 stood at 5 nM.

Take `Cc1ccc(C2=C(C(=O)NS(=O)(=O)C3CC3)C(=O)N[C@@](c3ccc(OCCCCCC(F)(F)F)cc3)(C(F)(F)F)C2)cc1` [Example 11]: the IC50 came out at 12 nM.

Consider `CCCCCCC#C[C@]1(C(F)(F)F)CC(c2ccc(OC(F)F)cc2)=C(C(=O)NS(C)(=O)=O)C(=O)N1` [Example 12], for which the IC50 came to 24 nM.

On to `Cc1ccc(C2=C(C(=O)NS(C)(=O)=O)C(=O)N[C@@](c3ccc(OCCCC(F)(F)F)cc3)(C(F)(F)F)C2)cc1` [Example 13], for which the IC50 came to 6 nM.

Take `CS(=O)(=O)NC(=O)C1=C(c2ccc(OC(F)F)cc2)C[C@](c2ccc(OCCCC(F)(F)F)cc2)(C(F)(F)F)NC1=O` [Example 14]: the half-maximal inhibitory concentration (IC50) came out at 54 nM.

Regarding `CCCCCCC#C[C@]1(C(F)(F)F)CC(c2ccc(C)cc2)=C(C(=O)NS(C)(=O)=O)C(=O)N1` [Example 15], the concentration for half-maximal inhibition (IC50) was determined as 4 nM.

Turning to `Cc1ccc(C2=C(C(=O)NS(=O)(=O)C3CC3)C(=O)N[C@@](c3ccc(OCCCC(F)(F)F)cc3)(C(F)(F)F)C2)cc1` [Example 16], the IC50 amounted to 18 nM.

On to `Cc1ccc(C2=C(C(=O)NS(C)(=O)=O)C(=O)N[C@@](c3ccc(OCc4ccccc4)cc3)(C(F)(F)F)C2)cc1` [Example 17], for which the IC50 was found to be 26 nM.

For the compound `COc1ccc(C2=C(C(=O)NS(=O)(=O)C3CC3)C(=O)N[C@@](c3ccc(OCCCCCC(F)(F)F)cc3)(C(F)(F)F)C2)cn1` [Example 18], the IC50 worked out at 52 nM.

For the compound `CCS(=O)(=O)NC(=O)C1=C(c2ccc(C)cc2)C[C@](c2ccc(OCCCC(F)(F)F)cc2)(C(F)(F)F)NC1=O` [Example 19], the concentration for half-maximal inhibition (IC50) is 17 nM.

As to `CC(C)(C)c1ccc(C2=C(C(=O)NS(=O)(=O)C3CC3)C(=O)N[C@@](c3ccc(OCCCCCC(F)(F)F)cc3)(C(F)(F)F)C2)cc1` [Example 20], the IC50 stood at 4 nM.

In the case of `CC(C)(C)c1ccc(C2=C(C(=O)NS(C)(=O)=O)C(=O)N[C@@](c3ccc(OCCCCCC(F)(F)F)cc3)(C(F)(F)F)C2)cc1` [Example 21], the IC50 was 7 nM.

Take `COc1ccc(C2=C(C(=O)NS(=O)(=O)C3CC3)C(=O)N[C@@](c3ccc(OCCCCCC(F)(F)F)cc3F)(C(F)(F)F)C2)cc1` [Example 22]: the IC50 was 3 nM.

Take `O=C1N[C@@](c2ccc(OCCCCCC(F)(F)F)cc2)(C(F)(F)F)CC(c2ccc(CC3CC3)cc2)=C1C(=O)NS(=O)(=O)C1CC1` [Example 23]: the concentration for half-maximal inhibition (IC50) came out at 4 nM.

For the compound `Cc1ccc(C2=C(C(=O)NS(C)(=O)=O)C(=O)N[C@](C)(CCC(C)C)C2)cc1` [Example 24], the 50% inhibitory concentration (IC50) worked out at 114 nM.

Regarding `CN(C)c1ccc(C2=C(C(=O)NS(C)(=O)=O)C(=O)N[C@@](c3ccc(OCCCC(F)(F)F)cc3)(C(F)(F)F)C2)cc1` [Example 25], the IC50 was 24 nM.

Regarding `CC(C)(C)c1ccc(C2=C(C(=O)NS(C)(=O)=O)C(=O)N[C@@](c3ccc(OCCCC(F)(F)F)cc3)(C(F)(F)F)C2)cc1` [Example 26], the IC50 is 19 nM.

As for `COc1ccc(C2=C(C(=O)NS(=O)(=O)C3CC3)C(=O)N[C@@](c3ccc(OCCCC(F)(F)F)cc3)(C(F)(F)F)C2)cc1` [Example 27], the IC50 was determined as 8 nM.

On to `Cc1ccc(C2=C(C(=O)NS(=O)(=O)C(C)(C)C)C(=O)N[C@@](c3ccc(OCCCC(F)(F)F)cc3)(C(F)(F)F)C2)cc1` [Example 28], for which the IC50 came to 348 nM.

For `Cc1ccc(C2=C(C(=O)NS(=O)(=O)c3ccccc3)C(=O)N[C@@](c3ccc(OCCCC(F)(F)F)cc3)(C(F)(F)F)C2)cc1` [Example 29], the IC50 was 84 nM.

`Cc1ccc(C2=C(C(=O)NS(=O)(=O)C(F)(F)F)C(=O)N[C@@](c3ccc(OCCCC(F)(F)F)cc3)(C(F)(F)F)C2)cc1` [Example 30]: the IC50 was 5 nM.

With `Cc1ccc(C2=C(C(=O)NS(=O)(=O)N(C)C)C(=O)N[C@@](c3ccc(OCCCCCC(F)(F)F)cc3)(C(F)(F)F)C2)cc1` [Example 32], the half-inhibitory concentration (IC50) was 25 nM.

For `Cc1ccc(C2=C(C(=O)NS(=O)(=O)C3CC3)C(=O)N[C@@](C#CCCCCCC(F)(F)F)(C(F)(F)F)C2)cc1` [Example 33], the IC50 was 11 nM.

On to `COc1ccc(C2=C(C(=O)NS(C)(=O)=O)C(=O)N[C@@](c3ccc(OCCCC(F)(F)F)cc3)(C(F)(F)F)C2)cc1` [Example 34], for which the IC50 was 295 nM.

Consider `COc1ccc(C2=C(C(=O)NS(=O)(=O)N(C)C)C(=O)N[C@@](c3ccc(OCCCC(F)(F)F)cc3)(C(F)(F)F)C2)cc1` [Example 35], for which the IC50 came out at 353 nM.

With `COc1ccc(C2=C(C(=O)NS(C)(=O)=O)C(=O)N[C@@](c3ccc(OCCCCCC(F)(F)F)cc3F)(C(F)(F)F)C2)cc1` [Example 36], the IC50 stood at 52 nM.

Consider `O=C1N[C@@](c2ccc(OCCCCCC(F)(F)F)cc2)(C(F)(F)F)CC(c2ccc(OC(F)F)cc2)=C1C(=O)NS(=O)(=O)C1CC1` [Example 37], for which the IC50 came to 6 nM.

Take `COc1ccc(C2=C(C(=O)NS(=O)(=O)C3CC3)C(=O)N[C@@](c3ccc(OCCCCCC(F)(F)F)cc3)(C(F)(F)F)C2)cc1` [Example 38]: the half-maximal inhibitory concentration (IC50) was 43 nM.

For the compound `CN(C)S(=O)(=O)NC(=O)C1=C(c2ccc(OC(F)F)cc2)C[C@](c2ccc(OCCCCCC(F)(F)F)cc2)(C(F)(F)F)NC1=O` [Example 39], the IC50 came out at 23 nM.

Consider `CCCCCCCc1cnc([C@]2(C(F)(F)F)CC(c3ccc(C)cc3)=C(C(=O)NS(=O)(=O)C3CC3)C(=O)N2)s1` [Example 40], for which the IC50 stood at 2 nM.

On to `CCCCCCCc1cnc([C@@]2(C(F)(F)F)CC(c3ccc(C)cc3)=C(C(=O)NS(=O)(=O)C3CC3)C(=O)N2)s1` [Example 41], for which the IC50 was 235 nM.

In the case of `CC(C)n1ccc(C2=C(C(=O)NS(=O)(=O)C3CC3)C(=O)N[C@@](c3ccc(OCCCC(F)(F)F)cc3F)(C(F)(F)F)C2)n1` [Example 42], the IC50 is 8 nM.

Regarding `CC(C)n1ccc(C2=C(C(=O)NS(C)(=O)=O)C(=O)N[C@@](c3ccc(OCCCC(F)(F)F)cc3F)(C(F)(F)F)C2)n1` [Example 43], the half-inhibitory concentration (IC50) was 20 nM.

With `CS(=O)(=O)NC(=O)C1=C(c2ccn(C3CCC3)n2)C[C@](c2ccc(OCCCC(F)(F)F)cc2F)(C(F)(F)F)NC1=O` [Example 44], the IC50 is 7 nM.

Regarding `O=C1N[C@@](c2ccc(OCCCC(F)(F)F)cc2F)(C(F)(F)F)CC(c2ccn(C3CCC3)n2)=C1C(=O)NS(=O)(=O)C1CC1` [Example 45], the IC50 was 17 nM.

As to `O=C1N[C@@](c2ccc(OCCCC(F)(F)F)cc2F)(C(F)(F)F)CC(c2ccn(C3CC3)n2)=C1C(=O)NS(=O)(=O)C1CC1` [Example 46], the IC50 was 81 nM.

`CS(=O)(=O)NC(=O)C1=C(c2ccn(C3CC3)n2)C[C@](c2ccc(OCCCC(F)(F)F)cc2F)(C(F)(F)F)NC1=O` [Example 47]: the IC50 was determined as 16 nM.

Regarding `CCn1ccc(C2=C(C(=O)NS(=O)(=O)C3CC3)C(=O)N[C@@](c3ccc(OCCCC(F)(F)F)cc3F)(C(F)(F)F)C2)n1` [Example 48], the half-inhibitory concentration (IC50) is 47 nM.

With `CC(C)n1ccc(C2=C(C(=O)NS(=O)(=O)C3CC3)C(=O)N[C@@](c3ccc(CCCCC(F)(F)F)cc3F)(C(F)(F)F)C2)c1` [Example 51], the half-inhibitory concentration (IC50) was 3 nM.

Consider `O=C1N[C@@](c2ccc(CCCCC(F)(F)F)cc2F)(C(F)(F)F)CC(c2ccn(CC3CC3)n2)=C1C(=O)NS(=O)(=O)C1CC1` [Example 52], for which the IC50 came out at 10 nM.

Consider `CCn1ccc(C2=C(C(=O)NS(=O)(=O)C3CC3)C(=O)N[C@@](c3ccc(CCCCC(F)(F)F)cc3F)(C(F)(F)F)C2)n1` [Example 53], for which the IC50 came out at 89 nM.

For the origin of these results see patent US9365558B2 (BRISTOL-MYERS SQUIBB COMPANY, priority 2013, dated 2016).
